Test results taken from patent publication US12286455B2, “Anthelmintic depsipeptide compounds” (BOEHRINGER INGELHEIM ANIMAL HEALTH USA INC., priority 2015, dated 2025).
In brackets after ≈: the same amount, converted by molar mass. Read-outs that look alike come from different tables or passages of the source.

What was measured:
[1] = amide bond, 24-membered ring, BOP-Cl/DIEA
[2] = tested on: Microfilaria of Dirofilaria immitis; test: Method B: survival of microfilaria of Dirofilaria immitis in microtitre plate; conditions: 72 h, read-out: median EC50, survival of microfilaria at 72 hours
[3] = tested on: Haemonchus contortus; test: Method A: development of L1 Haemonchus contortus larvae in microtitre plate; conditions: 96 h; for EC50: read-out: median EC50
[4] = the molecule shown is the open-chain precursor; amide bond; 24-membered ring; BOP-Cl/DIEA; DCM; 58.9 mM

| Compound | EC50 [2] | EC50 [3] | other results |
| --- | --- | --- | --- |
| CC(C)C[C@H]1C(=O)O[C@H](Cc2ccc(C(C)(C)C)cc2)C(=O)N(C)[C@@H](CC(C)(C)F)C(=O)O[C@H](C)C(=O)N(C)[C@@H](CC(C)C)C(=O)O[C@H](Cc2ccc(C(C)(C)C)cc2)C(=O)N(C)[C@@H](CC(C)(C)F)C(=O)O[C@H](C)C(=O)N1C [Compound 18-19] | < 100 nM | – | ring closure, yield after HPLC ([1]; from H-MeLeu-dPhLac(4-tBu)-MeLeu(4-F)-dLac-MeLeu-dPhLac(4-tBu)-MeLeu(4-F)-dLac-OH, DCM, 0.9 mM): 13%; MIC90 ([3]; read-out: median MIC90): 1 to 10 µM (≈ 1.1 to 11 µg/mL) |
| CC(C)C[C@H]1C(=O)O[C@H](C)C(=O)N(C)[C@@H](CC(C)(C)F)C(=O)O[C@H](Cc2ccc(C3CCOCC3)cc2)C(=O)N(C)[C@@H](CC(C)C)C(=O)O[C@H](C)C(=O)N(C)[C@@H](CC(C)(C)F)C(=O)O[C@H](Cc2ccc(C3CCOCC3)cc2)C(=O)N1C [Compound 7-18] | < 100 nM | 1000 to 10000 nM | ring closure, yield after HPLC ([1]; from H-MeLeu(4-F)-dPhLac(4-(oxan-4-yl))-MeLeu-dLac-MeLeu(4-F)-dPhLac(4-(oxan-4-yl))-MeLeu-dLac-OH, DCM, 10.75 mM, 0.0 °C): 60% |
| CC(C)C[C@H]1C(=O)O[C@H](C)C(=O)N(C)[C@@H](CC(C)(C)F)C(=O)O[C@H](Cc2ccc(N3CCOCC3)cc2)C(=O)N(C)[C@@H](CC(C)C)C(=O)O[C@H](C)C(=O)N(C)[C@@H](CC(C)(C)F)C(=O)O[C@H](Cc2ccc(N3CCOCC3)cc2)C(=O)N1C [Compound 6-18] | – | 100 to 1000 nM | ring closure, yield after HPLC ([1]; from H-MeLeu(4-F)-dPhLac(4-morpholinyl)-MeLeu-dLac-MeLeu(4-F)-dPhLac(4-morpholinyl)-MeLeu-dLac-OH?, DCM, 1.7 mM, 25.0 °C): 23% |
| C[C@H]1OC(=O)[C@H](CC(C)(C)C)N(C)C(=O)[C@@H](Cc2ccc(OC(F)(F)F)cc2)OC(=O)[C@H](CC(C)(C)F)N(C)C(=O)[C@@H](C)OC(=O)[C@H](CC(C)(C)C)N(C)C(=O)[C@@H](Cc2ccc(OC(F)(F)F)cc2)OC(=O)[C@H](CC(C)(C)F)N(C)C1=O [Compound 5-32] | 100 to 1000 nM | 100 to 1000 nM | ring closure, yield after HPLC ([1]; from H-MeLeu(4-F)-dPhLac(4-OCF3)-MeLeu(4-Me)-dLac-MeLeu(4-F)-dPhLac(4-OCF3)-MeLeu(4-Me)-dLac-OH, DCM, 4.17 mM): 59% |
| CC(C)C[C@H]1C(=O)O[C@H](C)C(=O)N(C)[C@@H](CC(C)(C)F)C(=O)O[C@H](Cc2ccc(C(F)(F)F)cc2)C(=O)N(C)[C@@H](CC(C)C)C(=O)O[C@H](C)C(=O)N(C)[C@@H](CC(C)(C)F)C(=O)O[C@H](Cc2ccc(C(F)(F)F)cc2)C(=O)N1C [Compound 4-18] | < 100 nM | 100 to 1000 nM | ring closure, yield after HPLC ([1]; from H-MeLeu(4-F)-dPhLac(4-CF3)-MeLeu-dLac-MeLeu(4-F)-dPhLac(4-CF3)-MeLeu-dLac-OH?, DCM, 5.2 mM, 25.0 °C): 34% |
| CC(C)C[C@H]1C(=O)O[C@H](Cc2ccc(C3CCOCC3)cc2)C(=O)N(C)[C@@H](CC(C)C)C(=O)O[C@H](C)C(=O)N(C)[C@@H](CC(C)C)C(=O)O[C@H](Cc2ccc(C3CCOCC3)cc2)C(=O)N(C)[C@@H](CC(C)C)C(=O)O[C@H](C)C(=O)N1C [Compound 7-27] | < 100 nM | 1000 to 10000 nM | ring closure, yield after HPLC ([1]; from H-MeLeu-dPhLac(4-oxan-4-yl)-MeLeu-dLac-MeLeu-dPhLac(4-oxan-4-yl)-MeLeu-dLac-OH?, 25.0 °C): 13% |
| C[C@H]1OC(=O)[C@H](CC(C)(C)C)N(C)C(=O)[C@@H](Cc2ccc(C3CCOCC3)cc2)OC(=O)[C@H](CC(C)(C)F)N(C)C(=O)[C@@H](C)OC(=O)[C@H](CC(C)(C)C)N(C)C(=O)[C@@H](Cc2ccc(C3CCOCC3)cc2)OC(=O)[C@H](CC(C)(C)F)N(C)C1=O [Compound 7-32] | < 100 nM | < 100 nM | ring closure, yield after HPLC ([1]; from H-MeLeu(4-F)-dPhLac(4-(oxan-4-yl))-MeLeu(4-Me)-dLac-MeLeu(4-F)-dPhLac(4-(oxan-4-yl))-MeLeu(4-Me)-dLac-OH, DCM, 25.0 mM): 61% |
| H-MeLeu(4-F)-dPhLac(4-tBu)-MeLeu(4-Me)-dLac-MeLeu(4-F)-dPhLac(4-tBu)-MeLeu(4-Me)-dLac-OH | – | – | ring closure, isolated yield [4]: 55% |
